Converted amounts (≈) assume the structure as drawn.
Key:
[1] = tested on: Multidrug resistant Mtb strains; test: microbe, parasite or virus in culture; assay type: cell-based; settings: Mycobacterium tuberculosis
[2] = tested on: Extensively drug resistant Mtb strains; test: microbe, parasite or virus in culture; assay type: cell-based; settings: for MIC: Mycobacterium tuberculosis
[3] = tested on: PAS resistant Mtb: FolC mutants; assay type: cell-based, Mycobacterium tuberculosis

SMILES | MIC [1] [µM] | activity against XDR and PAS resistant strains ([2]; most XDR and PAS resistant strains) | MIC [3] [µM] | MIC [2] [µM]
Nc1cc(O)c(C(=O)O)cc1F [Compound 11, 4-Amino-5-fluoro-2-hydroxybenzoic acid] | 6.3 to 50 (≈ 1.08 to 8.56 µg/mL) | largely inactive | ≥50 | –
Nc1ccc(C(=O)O)c(O)c1 [PAS, para-Aminosalicylic acid] | 0.2 to 3.1 (≈ 0.0306 to 0.475 µg/mL) | – | 12.5 to 50 | –
CC(=O)NC[C@H]1CN(c2ccc(N3CCOCC3)c(F)c2)C(=O)O1 [Linezolid] | 0.8 to 1.4 (≈ 0.27 to 0.472 µg/mL) | – | – | 0.9 to 50 (≈ 0.304 to 16.9 µg/mL)
NNC(=O)c1ccncc1 [Isoniazid] | 0.4 to 19 (≈ 0.0549 to 2.61 µg/mL) | – | 0.3 to 0.4 | 6.3 to 50 (≈ 0.864 to 6.86 µg/mL)

— article PMC8941652 (European journal of medicinal chemistry, 2022)
